# From US10376586B2, “Method and compositions for solubilizing non-polar constituents” (Entourage Bioscience, LLC, priority 2016, dated 2019)
# Tests used:
# [1] = solubility / solubilization in the MCT carrier oil; conditions: for stable solution concentration in MCTs: MCTs (0.0-6.0% C6, 6.0-60% C8, 6.0-60% C10), stirring at 85 degrees Celsius for 5 minutes
# Source text: The process for solubilizing target compounds according to the disclosure comprises, in particular, the following steps: (a) preparation of a carrier liquid solution comprising a mixture of medium-chain triglycerides, an amount of this carrier liquid solution is used, the amount depending on the amount of target compound to be solubilized; (b) admixing the carrier liquid solution with the target compound; (c) and, optionally, admixing a stabilizing compound to the carrier liquid/target compound. In some cases, depending on the compound to be solubilized, solvents that dissolve both polar and non-polar compounds such as ethanol, methanol, acetonitrile, 1-butanol or isopropyl alcohol, may be added to encourage solubilization, and then removed by vacuum evaporation. As another aspect, during compounding, dry inert gas may be filtered through the mixture to remove moisture.
# Riboflavin is known to have poor solubility in aqueous solutions and organic solvents. […] It may be desirable to solubilize a higher concentration of riboflavin in an ENDS. […] This mixture may then be added to MCTs (for example 0.0-6.0% C6, 6.0-60% C8, and/or 6.0-60% C10), homogenized for 5 minutes and subsequently heated to approximately 85 degrees Celsius at 250 mb (or 250 hPa) pressure in a rotary evaporator to drive off the methanol.
# Another example may be sulbutiamine. Sulbutiamine is a disulfide dimer of thiamine. […] It may be desirable to provide sulbutiamine in an ENDS. […]
# [2] = cited from earlier work
# [3] = cited from earlier work; remark: listed apart in the source
# [4] = cited from earlier work; remark: listed apart in the source
# [5] = cited from earlier work; remark: listed apart in the source
smiles,measurement,setting,value
CC(C)=CCC/C(C)=C/C=C/C(C)=C/C=C/C(C)=C/C=C/C=C(C)/C=C/C=C(C)/C=C/C=C(\C)CCC=C(C)C [lycopene],stable solution concentration in MCTs,[1],200 mg/mL
"C=C(C)[C@@H]1CCC(C)=C[C@H]1c1c(O)cc(CCCCC)cc1O [Cannabidiol, cannabidiol, reference compound]",solubilized amount in MCTs,"[1]; MCTs, stirring at 45 to 65 degrees Celsius for 5 minutes",up to 80 percent v/v
CC1=C(/C=C/C(C)=C/C=C/C(C)=C/C=C/C=C(C)/C=C/C=C(C)/C=C/C2=C(C)C(=O)[C@@H](O)CC2(C)C)C(C)(C)C[C@H](O)C1=O [Astaxanthin],quantity incorporated into the carrier oil by admixing,[1],< 2 mg/mL
Cc1cc2nc3c(=O)[nH]c(=O)nc-3n(C[C@H](O)[C@H](O)[C@H](O)CO)c2cc1C [riboflavin],"solubility in vegetable glycerin, propylene glycol and water","[2]; vegetable glycerin, propylene glycol and water",less than 0.2 mg/ml
same,solubility in MCTs versus aqueous solutions,[1],an order of magnitude greater solubility
"CC(=C(CCOC(=O)C(C)C)SSC(CCOC(=O)C(C)C)=C(C)N(C=O)Cc1cnc(C)nc1N)N(C=O)Cc1cnc(C)nc1N (stereo in doubt) [sulbutiamine, reference compound]",solubility in fats,[3],highly soluble
same,solubility in aqueous solutions,[2]; aqueous solutions,insoluble
same,stable solution concentration in MCTs,[1],200 mg/mL
CC1=C[C@H](O)CC(C)(C)[C@H]1/C=C/C(C)=C/C=C/C(C)=C/C=C/C=C(C)/C=C/C=C(C)/C=C/C1=C(C)C[C@@H](O)CC1(C)C [lutein],stable solution concentration in MCTs,[1],200 mg/mL
CC1=CCCC(C)(C)C1/C=C/C(C)=C/C=C/C(C)=C/C=C/C=C(C)/C=C/C=C(C)/C=C/C1=C(C)CCCC1(C)C (stereo not drawn) [alpha-carotene],quantity incorporated into the carrier oil by admixing,[1],< 2 mg/mL
CCCCCCCCCCCCCCCC(=O)OC[C@H](O)[C@H]1OC(=O)C(O)=C1O [ascorbyl palmitate],stable solution concentration in MCTs,[1],200 mg/mL
O=C(O)Cc1ccccc1 [phenylacetic acid],log P (partition co-efficient),[4],comparable to benzoic acid
same,pKa,[5],comparable to benzoic acid
C=C1CC[C@H](O)C/C1=C/C=C1\CCC[C@]2(C)[C@@H]([C@H](C)CCCC(C)C)CC[C@@H]12 [vitamin-D3],miscibility with the carrier oil,[1]; simple admixing with the carrier oil,any proportion
